Legend:
THP-1 cells = experiment: Reduction of β-amyloid-induced increased IL-1β release (ELISA); format: cell-based, human; details: 100 μM test compound with LPS and Aβ25-35, 48 hours
Description: THP-1 cells, a human monocyte cell line from American Type Culture Collection, were grown in RPMI-1640 medium plus 10% fetal bovine serum (FBS, not heat-inactivated) in T-flasks. The medium was changed every two days by spinning down (800 rpm, 5 minutes) the cells and added the same fresh medium. Alternatively, the cultures were maintained by the addition of fresh medium. The cultures were maintained at a cell concentration ranging from between 1×10^5 and 1×10^6 cells/mL. Because sera may contain unknown factors which can affect macrophage/monocyte IL-1 production, the FBS was reduced to 5% for 24 hours. The FBS was further reduced to 2% over two days prior to starting each experiment. The cells were collected by centrifugation and resuspended to 2% FBS. Cell numbers were calculated and cells were plated on 24-well plates (3×10^5 cells/0.6 mL/well). Cells were then treated with LPS (0.5 μg/ml or 0-10 μg/ml for LPS dose-response experiments) alone or in combination with Aβ peptides (5 μM or 0.05-5 μM for dose-response experiments). When determining the effect of the test compounds on cytokine release, 100 μM of the test compound was added with the LPS and Aβ25-35 and this mixture was incubated for 48 hours prior to performing ELISA.
IL-1β secretions into medium by LPS-stimulated THP-1 cells, in the presence or absence of amyloid peptides and a test compound, were assayed with a commercially available ELISA kit (R & D Systems). Briefly, a microtiter plate coated with a murine monoclonal antibody to human IL-1β was supplied by the manufacturer. Standards and samples were pipetted into the wells and any IL-1β present was bound by the immobilized antibody. Unbound proteins were washed away and a horseradish peroxidase-linked polyclonal antibody specific for IL-1β was added to the wells to “sandwich”the IL-1β bound in the initial step. […] Color development was stopped with 2 N sulfuric acid and the optical density of the standard and the test samples was measured at 450 nm. The amounts of IL-1β present in the samples were calculated based upon a standard curve. […]

synthetic Aβ(1-40) = target: T1, synthetic Aβ(1-40) (Homo sapiens, UniProt P05067); experiment: Inhibition of Aβ(1-40) beta-pleated sheet formation (ThT fluorescence); format: biochemical; details: 10 μM compound, ThT 3 μM, PBS pH 6.0, 12 hours; for inhibition at 10 µM: read-out: inhibition of Aβ(1-40) beta-pleated sheet formation compared to the controls
T1 construct: 3 μL of Aβ(1-40)(3 μg) prepared with dH2O
Source text: The deposition of amyloid β-peptide (Aβ) is associated with the development of Alzheimer's disease. See, for example, G. G. Glenner et al. (1984) Biochem. Biophys. Res. Commun., 120:885-890; and R. E. Tanzi (1989) Ann. Med., 21:91-94. Accordingly, compounds which effectively disrupt the formation of Aβ(1-40) or Aβ(1-42) beta-pleated sheets are potentially useful for preventing and/or reversing such amyloid deposits. Thioflavin T (ThT) is known to rapidly associate with beta-pleated sheets, particularly the aggregated fibrils of synthetic Aβ(1-40). This association gives rise to a new excitation maximum at 440 nm and to enhanced emission at 490 nm.
The experiments were performed using a CytoFluor II fluorescence plate reader having the following parameters:
Into each well was aliquoted 95 μl of ThT (3 μM) prepared in PBS (pH 6.0), 2 μL of the compound to be tested (10 μM) prepared with 0.05% of methylcellulose in PBS (pH 6.0), and 3 μL of Aβ(1-40)(3 μg) prepared with dH2O (the compounds prepared in Examples 1, 3, 4, 5, 6, 7, 8, 9, 11 and 12 were tested). The fluorescence measurement began when the Aβ(1-40) was added and continued for a total of 12 hours. The percent inhibition of beta-pleated sheet formation was calculated from the relative fluorescence unit difference between aggregation in the presence and in the absence of the test compounds.

[1] = tested on: primary neuronal/astrocyte cultures; experiment: Protection against Aβ(25-35)-induced neuronal cell loss; format: cell-based, Sprague Dawley rat; details: 100 μM test compound, 30 μM Aβ(25-35), 96 hours
Description: Patients with Alzheimer's disease are known to suffer a progressive loss of neuronal cells. See, for example, P. J. Whitehause et al., (1982) Science, 215:1237-1239. […] Sprague Dawley rat hippocampus of 18-day-gestation embryos was excised and then dissociated by trituration to prepare primary neuronal/astrocyte cultures. Cells (3×10^5) were plated on 35 mm poly-D-lysine-coated plates containing Eagle's minimum essential medium supplemented with 10% fetal bovine serum. After 3-5 hours, the original medium was removed and replaced with 1 mL of fresh medium. Cultures were maintained at 37° C. in a 5% CO2/95% air humidified incubator.
To the cells (7 DIV) was added 30 μM of Aβ(25-35) dissolved in dH2O (stored at −20° C.) and 100 μM of the test compound (i.e., a compound of Example 1, 3, 4, 5, 6, 7, 8, 12 or 13 above) in 1% methylcellulose. Controls were also conducted without the test compound. The percentage of morphologically viable neurons was determined counting the number of viable neurons after 96 hours treatment compared to the number of neurons before treatment in the same premarked culture regions (three regions/culture, n=6).

[2] = Free radical trapping, DCF oxidation, tert-butyl hydroperoxide system; format: biochemical; details: 100 μM test compound, 25 μM tert-butyl hydroperoxide, 50 μM DCF in MEM, 37° C., 2 hrs
Description: (§1) Dichlorofluorescein (DCF) is a compound that fluoresces when oxidized by reactive oxygen species (ROS), such as hydroxyl, peroxyl, or alkoxyl free radicals. Test compounds were evaluated for their ability to scavenge radicals by determining their capacity to prevent the DCF oxidation in a radical generating environment. Two radical generating systems were used: (i) ferrous iron and (ii) tert-butyl hydroperoxide. When ferrous iron is placed in normoxic solution, it autooxidizes to produce ROS in the form of hydroxyl radicals, superoxide anion free radicals, and hydrogen peroxide. Similarly, when tert-butyl hydroperoxide is placed in non-chelated media, trace metals catalyze its oxidation to yield alkoxy, peroxyl, and alkyl free radicals.
(§2) In this assay, either 100 μM FeSO4 or 25 μM tert-butyl hydroperoxide were mixed with 50 μM DCF and 100 μM of the test compound in MEM and the mixture was incubated at 37° C. for 2 hrs. The fluorescence wavelengths measured were 485 nm for excitation and 530 nm for emission. In these tests, N-isopropyl-α-(2-sulfofuran-5-yl)nitrone sodium salt (prepared in Example 1 above) reduced fluorescence by 20% in the Fe^+2 assay and by 13% in the tert-butyl hydroperoxide assay. In comparison, a known free radical trap, N-tert-butyl-α-phenylnitrone (PBN) reduced fluorescence by 48% in the Fe^+2 assay and by 9% in the tert-butyl hydroperoxide assay.

[3] = Free radical trapping, DCF oxidation, ferrous iron system; format: biochemical; details: 100 μM test compound, 100 μM FeSO4, 50 μM DCF in MEM, 37° C., 2 hrs
Description: as §1, §2

T1 sequence (P05067 672-711 limits assumed): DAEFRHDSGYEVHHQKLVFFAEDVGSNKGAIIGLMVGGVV

## CC(C)[N+]([O-])=Cc1ccc(S(=O)(=O)N2CCOCC2)o1 [Example 11, N-Isopropyl-α-[2-(N-morpholinosulfonyl)furan-5-yl]nitrone]
THP-1 cells
  reduction of the β-amyloid-induced increased release of interleukin-1β compared to the controls: did not significantly reduce

## CCCCCC[N+]([O-])=Cc1ccc(S(=O)(=O)O)o1 [Example 5, N-n-Hexyl-α-(2-sulfofuran-5-yl)nitrone]
Synthetic Aβ(1-40)
  inhibition at 10 µM: 15 to 71%

## O=S(=O)(O)c1ccc(C=[N+]([O-])C2CCCCC2)o1 [Example 6, N-Cyclohexyl-α-(2-sulfofuran-5-yl)nitrone]
Synthetic Aβ(1-40)
  inhibition at 10 µM: 15 to 71%

## CC(C)[N+]([O-])=Cc1ccc(S(=O)(=O)N2CCN(C)CC2)o1.Cl [Example 15, N-Isopropyl-α-[2-(N-4-methylpiperazin-1-ylsulfonyl)-furan-5-yl]nitrone Hydrochloride]
THP-1 cells
  reduction of the β-amyloid-induced increased release of interleukin-1β compared to the controls: did not significantly reduce

## CC(C)(C)[N+]([O-])=Cc1ccc(S(=O)(=O)O)o1 [Example 4, N-tert-Butyl-α-(2-sulfofuran-5-yl)nitrone]
[1]
  reduction of Aβ(25-35)-induced neuronal cell loss compared to the controls: did not significantly reduce
Synthetic Aβ(1-40)
  inhibition of Aβ(1-40) beta-pleated sheet formation compared to the controls: did not significantly reduce

## N-Adamantyl-α-(2-sulfofuran-5-yl)nitrone [Example 8]
Synthetic Aβ(1-40)
  inhibition of Aβ(1-40) beta-pleated sheet formation compared to the controls: did not significantly reduce

## CC(C)(C)CC(C)(C)[N+]([O-])=Cc1ccc(S(=O)(=O)O)o1 [Example 7, N-tert-Octyl-α-(2-sulfofuran-5-yl)nitrone]
Synthetic Aβ(1-40)
  inhibition at 10 µM: 15 to 71%

## CCCC[N+]([O-])=Cc1ccc(S(=O)(=O)O)o1 [Example 3, N-n-Butyl-α-(2-sulfofuran-5yl)nitrone]
Synthetic Aβ(1-40)
  inhibition of Aβ(1-40) beta-pleated sheet formation compared to the controls: did not significantly reduce

## CC(C)(C)[N+]([O-])=Cc1ccccc1 [PBN, N-tert-butyl-α-phenylnitrone, reference compound]
[2]
  reduced fluorescence in the tert-butyl hydroperoxide assay: 9%
[3]
  reduced fluorescence in the Fe^+2 assay: 48%

## CCN(CC)S(=O)(=O)c1ccc(C=[N+]([O-])C(C)C)o1 [Example 12, N-Isopropyl-α-[2-(N,N-diethylsulfamoyl)furan-5-yl]nitrone]
Synthetic Aβ(1-40)
  inhibition at 10 µM: 15 to 71%

## O=S(=O)(O)c1ccc(C=[N+]([O-])Cc2ccccc2)o1 [Example 9, N-Benzyl-α-(2-sulfofuran-5-yl)nitrone]
Synthetic Aβ(1-40)
  inhibition at 10 µM: 15 to 71%

## CC(C)[N+]([O-])=Cc1ccc(S(=O)(=O)N2CCN(C)CC2)o1 [Example 14, N-Isopropyl-α-[2-(N-4-methylpiperazin-1-ylsulfonyl)furan-5-yl]nitrone]
THP-1 cells
  reduction of the β-amyloid-induced increased release of interleukin-1β compared to the controls: did not significantly reduce

— patent US6376540B1, “Furan nitrone compounds” (Centaur Pharmaceuticals, Inc., priority 1996, dated 2002)
